Earlier results in patent publication US8658806B2, “Process for preparing optically active antrocin” (Deyew Biotech Corp., priority 2011, dated 2014).

Test system: MDA-MB-231 cells
Details: from Rao et al., Chem. Res. Toxicol. 2011, 24, 238-245, read-out: IC50 value against MDA-MB-231 cells of metastatic breast cancer

## C=C1CC[C@H]2C(C)(C)CCC[C@@]23C(=O)OC[C@@H]13 [antrocin]
  IC50: 600 nM
